From patent US9045490B2, “Use of parthenolide derivatives as antileukemic and cytotoxic agents” (University of Kentucky, priority 2003, dated 2015) come the findings set out here.

For data set [1], the system named is breast cancer cell line 436. The experiment in a line: Clonogenic assay. The format is cell-based. Conditions: 436 cells, 2 μm concentration (parthenolide: similar dosage ranges).
In data set [2] the test system is breast cancer cell line hbl-100. The experiment in a line: Clonogenic assay. It is filed as cell-based. As to conditions: hbl-100, 2 μm concentration (parthenolide: similar dosage ranges).
Data set [3] has as its system radiation sensitive cell line A549. The experiment in a line: Radiation sensitisation by pretreatment, survival fraction. It is filed as cell-based. Conditions: A549, 2.5 micromolar pretreatment. An excerpt:
The radiation sensitive cell line A549 was pretreated with parthenolide concentrations ranging from 0 to 2.5 micromolar. The cells were then subjected to ionizing radiation doses ranging from 0-6Gy and survival fraction of the cells determined. […] Cells not receiving pre-treatment with parthenolide had greater than 50% survival fraction at the highest radiation dose of 6Gy and over 90% survival at 2Gy.

Data set [4] in a line: Oral bioavailability in mice: plasma level by LC-MS. Conditions: mouse, 40 mg/kg oral, LC-MS, average of 5 mice, read-out: plasma level one hour after oral gavage. The format is in vivo. How it is done: Preliminary in vivo work was conducted to determine the bioavailability and toxicity of this agent in mice.
Data set [5] deals with normal hematopoietic stem cells. The experiment in a line: Human-mouse xenograft: NOD/SCID engraftment of normal donor cells treated in vitro. It is filed as in vivo. As to conditions: 7.5 micromolar in vitro for 12-18 hours, bone marrow analysed after 6-8 weeks (CD45). The protocol:
(§1) To assess the effect of parthenolide on primary human stem cell populations, experiments were conducted using transplantation into immune deficient NOD/SCID mice. […] For each experiment, cryopreserved mononuclear cell specimens from normal or AML donors were thawed, and treated in vitro with 7.5 micromolar parthenolide for 12-18 hours. Following culture, 5-10 million cells/animal were injected intravenously into sublethally irradiated (300 Rad) NOD/SCID mice. After 6-8 weeks, animals were sacrificed and bone marrow was analyzed for the presence of human cells using flow cytometry as previously described (Guzman et al., Proc Natl Acad Sci USA 2002; 99: 16220-162253). Human specific antibodies for CD45 were used to assess the level of total engraftment.

Data set [6] deals with lung cancer cell line H460. The experiment in a line: MTS-PMS cellular proliferation assay. Conditions: Homo sapiens, NCI-H460. It is filed as cell-based. The protocol:
(§2) A 96-well U-bottomed plate (Becton Dickinson Labware, Franklin Lakes, N.J.) at a concentration of 5,000 cells per 50 microliters […] of media was incubated in 5% CO2 at 37° C. for 24 hours. Varying compound concentrations in […] of media were added to the media 24 hours later. Colorimetric readings were obtained using the MTS/PMS system and an ELISA plate reader, after 48 hours of exposure to DMAPT. The readings obtained for each concentration tested were from an average of eight wells. Each experiment was expressed as a percentage of the solvent control and completed at least three times with consistent results. The results presented are an average of three experiments. The hormone refractory prostate cancer cell line CWR22Rv1 was treated with increasing concentrations of parthenolide and DMAPT. for three hours Both parthenolide and DMAPT reduced cellular proliferation by 50% at 5 μm in the CWR22 MTS-PMS assay. Cellular proliferation was also measured in the MTS-PMS assay using four lung cancer cell lines treated with parthenolide and derivatives PIPT ((11S,11,13-dihydro,13-(piperidin-1-yl)parthenolide), 4MEPT (11S,11,13-dihydro,13-(4-methylpiperidin-1-yl)parthenolide) and MAPT (11S,11,13-dihydro,13-dimethylaminoparthenolide). Parthenolide and its derivatives inhibited cellular proliferation in a dose dependent manner between 2 and 10 μM with 70% inhibition at 10 μM in A549, 50% in H460, 40% in H-23 and 40% in H522 (FIGS. 2-5).

In data set [7] the test system is lung cancer cell line H522. The experiment in a line: MTS-PMS cellular proliferation assay. The format is cell-based. As to conditions: Homo sapiens, NCI-H522. How it is done: as §2
Data set [8] relates to hormone refractory prostate cancer cell line CWR22Rv1. The experiment in a line: MTS-PMS cellular proliferation assay. The format is cell-based. Conditions: at 5 μm, CWR22 MTS-PMS assay. How it is done:
as §2

The test system of data set [9] is lung cancer cell line H-23. The experiment in a line: MTS-PMS cellular proliferation assay. The format is cell-based. The protocol: as §2
The subject of data set [10] is lung cancer cell line A549. The experiment in a line: MTS-PMS cellular proliferation assay. Conditions: Homo sapiens. The format is cell-based. How it is done:
as §2

The test system of data set [11] is Healthy human bone marrow cells. The experiment in a line: Cytotoxicity to healthy bone marrow cells (same Annexin V/7-AAD assay). It is filed as cell-based. Conditions: 10 μM. How it is done: (§3) For apoptosis analysis, one million primary acute myelogenous leukemia (AML) cells were washed with cold PBS and resuspended in 200 microliters of Annexin binding buffer (10 mM HEPES/NaOH pH 7.4; 140 mM NaCl; 2.5 mM CaCl2). Annexin V-FITC (Pharmingen) and 0.25 mg/mL 7-AAD (7-aminoactinomycin D, Molecular Probes, CA) were added and the tubes were incubated at room temperature in the dark for 15 minutes. Cells were then diluted with 200 microliters of Annexin binding buffer and analyzed immediately by flow cytometry. Viable cells were identified as failing to label with Annexin V or 7-AAD. Cells beginning to die label with Annexin V, and as membrane integrity is lost, will also label with 7-AAD. For each parthenolide derivative, the percentage of viable cells was determined after 24 hours of culture at a 10 micromolar concentration. Data are normalized to untreated control specimens. The data are in Table 1 for aminoparthenolide derivatives and Table 2 for the salts of some aminoparthenolides.
Healthy human bone marrow cells were used in the above assay to test the cytotoxicity of parthenolide. Eighty-five percent of the normal cells survived 10 μM of parthenolide. All the aminoparthenolides evaluated afforded results similar to parthenolide, i.e. the survival rate of healthy human bone marrow cells was over 85% at a concentration of 10 μM.

In data set [12] the test system is primary acute myelogenous leukemia (AML) cells. The experiment in a line: Assay for antileukemic activity (Annexin V/7-AAD apoptosis analysis by flow cytometry). The format is cell-based. As to conditions: 10 μM, 24 hours of culture, normalized to untreated control. The protocol: as §3, with “For each parthenolide derivative, the percentage of viable cells was determined after 24 hours of culture at a 10 micromolar concentration.” left out

Data set [13] deals with breast cancer cell line mdl-231. The experiment in a line: Clonogenic assay. It is filed as cell-based. Conditions: mdl-231, 2 μm concentration (parthenolide: similar dosage ranges).
Data set [14] relates to AML cells (AML stem cell compartment). The experiment in a line: Human-mouse xenograft: NOD/SCID engraftment of AML cells treated in vitro. The format is in vivo, human cells in NOD/SCID mice. Conditions: 7.5 micromolar in vitro for 12-18 hours, bone marrow analysed after 6-8 weeks (CD45). How it is done:
as §1

As usually defined, the inhibition is the relative decrease from the control value, in per cent.

With `C=C1C(=O)O[C@@H]2[C@H]3O[C@]3(C)CC/C=C(\C)CC[C@@H]12` [Parthenolide], the inhibition of proliferation result in data set [1], in [2] and in data set [13] was “reduced proliferation” each time. The survival fraction in data set [3] (2Gy) is 10%; in data set [3] (6Gy), “less than 1%”. In addition, the concentration at 1 h in data set [4] was around 200 nM. Moreover, in [5], the “level of engraftment of treated normal cells in NOD/SCID mice” value is “no reduction in engraftment”. The inhibition at 10 µM in [6] was found to be 50%; in data set [7], 40%; in data set [9], 40%; in data set [10] it was 70%. Moreover, the “reduction of cellular proliferation” value in data set [8] is reported as 50%. The “survival rate of healthy human bone marrow cells” value in [11] is recorded as “Eighty-five”. For the same compound, the Antileukemic activity in [12] is recorded as 10 μM, 84%. Further, in [14], the “level of engraftment of treated AML cells in NOD/SCID mice” value was “dramatically reduced”.
